Measured values as given in US20150183846A1, “HUMAN FUSION PROTEINS COMPRISING SINGLE CHAIN TNFALPHA AND TARGETING DOMAINS” (Scil Proteins GmbH, priority 2012, published 2015).
“Also recorded” adds a separate entry of the source.

Legend:
[1] = test system: L929 cells; experiment: L929 apoptosis (cytotoxicity) assay of TNFalpha activity; type: cell-based; settings: actinomycin D sensitized cells, 24 h
Source text: The physiological TNFalpha-activity of an Affilin-scTNF-fusion protein has been determined using the L929 apoptosis assay (Flick et al., 1984 J. Immunol. Methods. 68:167-175). In this assay, the effector part of the fusion protein (scTNFalpha, three soluble TNFalpha monomers connected via peptide linkers) efficiently stimulates cell death in actinomycin D sensitized cells at EC50 values in the picomolar range.
Cells were resuspended in suitable medium containing FBS and antibiotics. A cell suspension of a density of 3.5×10^5 cells/ml in medium containing 2% FCS was seeded into the wells of a 96 well standard cell culture plate. After incubation, the culture medium was removed and medium containing 4% FBS, Actinomycin D and antibiotics was added to each well. […] After a further incubation of 24 h, the metabolic activity as a measure of cell survival was determined using WST-1 reagent (Roche). […] The quantitative evaluation is based on the relative potency against a mTNFalpha-standard.
In this embodiment, an L929 assay was used as activity assay versus mouse TNFalpha as internal standard (mTNFalpha in the figure). […] Potency has been determined in several independent assays and is determined by parallel line method with PLA2.0 software relative to the internal control mTNFalpha. […]

[2] = test system: Wi38 cells; experiment: Binding (staining) on vital Wi38 fibroblast cells; type: cell-based, human; settings: Wi38 cells (high ED-B), up to 10 nM, anti-TNFalpha-antibody detection
Description: (§1) ED-B is expressed in tumors and the matrix on embryonic cells. The binding of the cancer target-binding protein fused to scTNFalpha to the matrix of cell culture cells was compared to the binding of the control and non-targeting domain protein fused to scTNFalpha (64179). Different cell culture cells were analyzed, including normal human fetal lung fibroblast cells having high expression levels of ED-B (Wi38 cells), and normal human dermal fibroblasts having low level of ED-B (NHDF). To analyze the in vitro binding, 64177, 83563, 83564 and 64179 were investigated on vital Wi38 cells.
(§2) Fusion proteins (single concentration of 1, 5 and 10 nM) or control protein 64179 (1, 5 and 10 nM) were incubated (1 h, 37° C.) with Wi38 and NHDF cells (60,000 cells/ml; from ATCC), followed by fixation with methanol, blocking (5% Horse serum/PBS); incubation with an anti-TNFalpha-antibody (Peprotech 500-P64, 1:500) and additionally with a secondary Alexa488 conjugated antibody (obtained from Invitrogen A11008, 1:1000). The nuclei were stained with DAPI.

[3] = test system: NHDF cells; experiment: Binding (staining) on vital NHDF cells; type: cell-based, human; settings: NHDF cells (low ED-B), up to 10 nM
Description: as §1, §2

[4] = test system: F9-tumor tissue; experiment: Binding on F9 teratocarcinoma tumor slices; parameters: species or system mouse
Description: ED-B accumulates around neovascular structures, like tumor blood vessels (Tarli et al., 1999, Blood 94: 192-198). Different concentrations of fusion proteins were compared with respect to ED-B target binding on F9 teratocarcinoma slides. Slices of a thickness of 6 μm were fixed with ice cold absolute acetone. After blocking with 5% horse serum, slices were incubated with 1, 5 and 10 nM of fusion proteins 64177, 83563, 83564 and the non-ED-B targeted protein 64179, respectively. Fusion proteins were probed by anti-TNFalpha-antibody (Peprotech 500-P64, 1:500) and additional with a secondary Alexa488 conjugated antibody (Invitrogen, A11008, 1:1000). CD31 (PECAM-1) is a widely used endothelial cell marker. Therefore, vessels were stained by use of an anti-mouse CD31-antibody (10 μg/ml; Abcam, ab56299) and an Alexa594-conjugated secondary antibody.

[5] = test system: MDA-MB 231 tumor; experiment: In vivo efficacy study in breast cancer (MDA-MB 231) tumor bearing mice, combination with Lipodox; parameters: species or system mouse
Source text: The efficacy study is intended to analyze the effect of targeted fusion protein 83564 combined with a chemotherapeutic on the tumor size in a breast cancer model. As model system for the in vivo efficacy study, the breast cancer cell line MDA-MB 231 (ATCC® HTB-26™; patient derived model, obtained from ATCC) was used. Cells were implanted subcutaneously in the left flank of female immunodeficient NMRI nu/nu mice from Harlan. For this study, Lipodox was used as exemplary cytotoxic drug; any other cytotoxic agents could be used instead. The chemotherapeutic Lipodox from Sun Pharma Global FZE is composed of doxorubicin hydrochloride encapsulated in long circulating pegylated liposomes. It is indicated as monotherapy for the treatment of metastatic breast cancer with increased cardiac risk.
In order to show the efficacy of Affilin-scTNFalpha-fusion protein 83564, mice carrying an MDA-MB 231 tumor with an initial size between 50 mm^3 and 200 mm^3 were intravenously treated with 75 μg/kg/day 83564 combined with Lipodox at a dose of 1.5 mg/kg/day (closed squares in FIG. 8). As control substance, 75 μg/kg/day 64179 (Affilin-scTNFalpha-fusion protein without targeting) combined with Lipodox at a dose of 1.5 mg/kg/day was injected intravenously into separate mice (closed circles in FIG. 8). […] During the whole efficacy study, the relative tumor volume was analyzed.

[6] = In vivo toxicity study in naive CD1 mice, single intravenous dose; settings: i.v., mTNFalpha 470 μg/kg equimolar to 650 μg/kg 64177
Description: Two groups of 3 male and 3 female mice for each treatment dose were recruited. One group of 3 male and 3 female mice for each treatment dose was sacrificed 24 h after the intravenous administration to obtain information on acute TNFalpha mediated effects. […] Parameters that were analyzed are: clinical signs (local tolerance, systemic tolerance, mortality, behavior, external appearance, faeces), body weight, body temperature, food consumption, hematology, clinical chemistry, macroscopic post mortem findings, organ weights and histopathology of dedicated organs.

| Substance | activity of the scTNFalpha part relative to mouse TNFalpha internal standard [1] | staining of ED-B on vital Wi38 cells [2] | staining on vital NHDF cells [3] | accumulation close to F9-tumor vessels (co-staining with anti-CD31) ([4]; 1 nM fusion protein) | binding on F9-tumor tissue slices ([4]; 1 nM, 5 nM and 10 nM) | relative tumor volume at day 28 ([5]; 75 μg/kg/day fusion protein i.v. combined with Lipodox 1.5 mg/kg/day) [mm^3] | effect on tumor growth compared with the other groups ([5]; fusion protein combined with Lipodox 1.5 mg/kg/day) | incidence and/or severity of toxic effects, mTNFalpha- versus 64177-treated animals [6] |
| --- | --- | --- | --- | --- | --- | --- | --- | --- |
| 64179: control fusion protein of a non-binding ubiquitin dimer (Ub2) and mouse scTNFalpha (SEQ ID NO: 16) [compound 64179, reference compound] | at least the same activity compared to the mouse TNFalpha | No unspecific staining; also recorded: not detectable | not detectable | no accumulation in F9-tumor vessels | not detected | 651 | had the effect on growth of breast cancer as Lipodox alone |  |
| mTNFalpha: murine recombinant TNFalpha used as internal standard and reference item [reference compound] |  |  |  |  |  |  |  | generally more pronounced |
